According to US20230218666A1, “ANTIMICROBIAL COMBINATIONS” (MARVELBIOTICS LIMITED, priority 2020, published 2023):
“And” between values parts separate entries of the source, which are not always exact repeats. Equal entries are not always repeated.

Columns and labels:
Lactobacillus plantarum [1] = assay: Phase 2c: survival of Lactobacillus plantarum after 30 minutes, 4 hours and 24 hours contact; format: cell-based; details: for Minimum concentration at which growth was observed (%): single agent, n = 3; for Growth observed after recovering viable Lactobacillus plantarum: replicates 1.1-3.2
Experimental: Three concentrations of each test agent were prepared following the results of Phase 2b. […] Testing was performed in triplicate.

Lactobacillus plantarum [2] = assay: Phase 2a: survival of Lactobacillus plantarum after 24 hours contact at stock concentrations
Lactobacillus plantarum [3] = assay: Phase 2b: survival of Lactobacillus plantarum after 24 hours contact at a range of concentrations; details: for Minimum concentration at which growth was observed (%): single agent, n = 3; for Growth observed after recovering viable Lactobacillus plantarum: 24 hours, replicates 1.1-3.2

Copper gluconate was tested, and the “concentration at which consistent growth was observed across all replicates” value (Lactobacillus plantarum [1]; 30 minutes contact time) was ≤ 4.083%, the “Minimum concentration at which growth was observed (%)” value (shortened to “Minimum concentration … (%)”) (Lactobacillus plantarum [1]; 30 minutes contact time) was 8.167% and the “Minimum concentration … (%)” value (Lactobacillus plantarum [1]; 4 hours contact time) was 0.510%. The “Minimum concentration … (%)” value (Lactobacillus plantarum [1]; 24 hours contact time) was 0.255%, the “Growth observed after recovering viable Lactobacillus plantarum” value (shortened to “Growth observed”) (Lactobacillus plantarum [1]; concentration 0.128 %, 24 hours) was “+” and the “Growth observed” value (Lactobacillus plantarum [1]; concentration 0.255 %, 4 hours) was “+”. For the same substance, the “Growth observed” value (Lactobacillus plantarum [1]; concentration 0.255 %, 24 hours) was “+”, the “Growth observed” value (Lactobacillus plantarum [1]; concentration 0.510 %, 4 hours) was “+” and the “Growth observed” value (Lactobacillus plantarum [1]; concentration 0.510 %, 24 hours) was “−”. For the same substance, the “Growth observed” value (Lactobacillus plantarum [1]; concentration 0.510 %, 24 hours, listed as copper gluconate) was “unable to survive”, the “Growth observed” value (Lactobacillus plantarum [1]; concentration 1.021 %, 4 hours) was “−” and the “Growth observed” value (Lactobacillus plantarum [1]; concentration 1.021 %, 4 hours, listed as copper gluconate) was “unable to survive”. The “Growth observed” value (Lactobacillus plantarum [1]; concentration 2.042 %, 30 minutes) was “+”, the “Growth observed” value (Lactobacillus plantarum [1]; concentration 4.084 %, 30 minutes) was “+” and the “Growth observed” value (Lactobacillus plantarum [1]; concentration 8.167 %, 30 minutes) was “− (4×) and + (2×)”. The “Growth observed” value (Lactobacillus plantarum [1]; concentration 8.167 %, 30 minutes, listed as copper gluconate) was “Growth was observed in two of three replicates”, the Growth (Lactobacillus plantarum [2]; stock concentration 8.167 %, n = 3) was “No” and the Growth (Lactobacillus plantarum [2]; stock concentration 8.167 %, n = 3, listed as copper gluconate) was “No growth of L. plantarum was observed”. The “Minimum concentration … (%)” value (Lactobacillus plantarum [3]; 24 hours contact time) was 0.255%, the “Growth observed” value (Lactobacillus plantarum [3]; concentration 0.064 %) was “+” and the “Growth observed” value (Lactobacillus plantarum [3]; concentration 0.128 %) was “+”. For the same substance, the “Growth observed” value (Lactobacillus plantarum [3]; concentration 0.255 %) was “+”, the “Growth observed” value (Lactobacillus plantarum [3]; concentration 0.510 %) was “−” and the “Growth observed” value (Lactobacillus plantarum [3]; concentration 1.021 %) was “−”. For the same substance, the “Growth observed” value (Lactobacillus plantarum [3]; concentration 2.042 %) was “−”, the “Growth observed” value (Lactobacillus plantarum [3]; concentration 4.084 %) was “−” and the “Growth observed” value (Lactobacillus plantarum [3]; concentration 8.167 %) was “−”.

With Zinc gluconate the “Minimum concentration … (%)” value (Lactobacillus plantarum [1]; 30 minutes contact time) was 6.326%, the “Minimum concentration … (%)” value (Lactobacillus plantarum [1]; 30 minutes contact time, listed as zinc gluconate) was ≤ 6.326% and the “Minimum concentration … (%)” value (Lactobacillus plantarum [1]; 4 hours contact time) was 6.326%. The “Minimum concentration … (%)” value (Lactobacillus plantarum [1]; 4 hours contact time, listed as zinc gluconate) was ≤ 6.326%, the “Minimum concentration … (%)” value (Lactobacillus plantarum [1]; 24 hours contact time) was 6.326% and the “Minimum concentration … (%)” value (Lactobacillus plantarum [1]; 24 hours contact time, listed as zinc gluconate) was ≤ 6.326%. The “Growth observed” value (Lactobacillus plantarum [1]; concentration 1.5815 %, 30 minutes) was “+”, the “Growth observed” value (Lactobacillus plantarum [1]; concentration 1.5815 %, 4 hours) was “+” and the “Growth observed” value (Lactobacillus plantarum [1]; concentration 1.5815 %, 24 hours) was “+”. For the same substance, the “Growth observed” value (Lactobacillus plantarum [1]; concentration 3.163 %, 30 minutes) was “+”, the “Growth observed” value (Lactobacillus plantarum [1]; concentration 3.163 %, 4 hours) was “+” and the “Growth observed” value (Lactobacillus plantarum [1]; concentration 3.163 %, 24 hours) was “+”. For the same substance, the “Growth observed” value (Lactobacillus plantarum [1]; concentration 6.326 %, 30 minutes) was “+”, the “Growth observed” value (Lactobacillus plantarum [1]; concentration 6.326 %, 4 hours) was “+” and the “Growth observed” value (Lactobacillus plantarum [1]; concentration 6.326 %, 24 hours) was “+”. The Growth (Lactobacillus plantarum [2]; stock concentration 6.326 %, n = 3) was “Yes”, the Growth (Lactobacillus plantarum [2]; stock concentration 6.326 %, n = 3, listed as zinc gluconate) was “Growth of L. plantarum was observed” and the “Growth of L. plantarum” value (Lactobacillus plantarum [3]; 24 hours contact time, at all concentrations tested (Table 6)) was “Growth was observed”. For the same substance, the “Minimum concentration … (%)” value (Lactobacillus plantarum [3]; 24 hours contact time) was 6.326%, the “Growth observed” value (Lactobacillus plantarum [3]; concentration 0.049 %) was “+” and the “Growth observed” value (Lactobacillus plantarum [3]; concentration 0.099 %) was “+”. The “Growth observed” value (Lactobacillus plantarum [3]; concentration 0.198 %) was “+”, the “Growth observed” value (Lactobacillus plantarum [3]; concentration 0.395 %) was “+” and the “Growth observed” value (Lactobacillus plantarum [3]; concentration 0.791 %) was “+”. For the same substance, the “Growth observed” value (Lactobacillus plantarum [3]; concentration 1.582 %) was “+”, the “Growth observed” value (Lactobacillus plantarum [3]; concentration 3.163 %) was “+” and the “Growth observed” value (Lactobacillus plantarum [3]; concentration 6.326 %) was “+”.
